# Test results published in patent US5939578A, “Vasomolol: an ultra short-acting and vasodilatory vanilloid type β - adrenoceptor antagonist” (Lin; Tong-Ho, priority 1996, dated 1999).
# Columns and labels:
# [1] = molecular target: T1, β-adrenoceptor, ventricular membranes (Sus scrofa, UniProt Q28998); test: Competition for [3H]-DHA binding to ventricular membranes; set-up: species or system pig
# T1 construct: tissue local slaughterhouse; host or cells: pig heart ventricular membranes
# Description: Pig's heart were obtained from a local slaughterhouse immediately after the animals had been killed and transported to our laboratory in ice-cold buffer (250 mM sucrose/50 mM Tris [hydroxymethyl] aminomethane HCl/1 mM magnesium chloride, pH 7.4). Various heart tissues were removed and prepared as detailed as described in Cardiovasc. […] In the test for receptor binding, the ventricles were placed in ice-cold buffer and all subsequent procedures were carried out at 4° C. The tissue was homogenised in 20 volumes of TE buffer (10 mmole.litre^-1 Tris-HCl, 1 mmole.litre^-1 EDTA, 0.1 mmole.litre^-1 ascorbic acid, pH 7.4) with three 12-s pulses using a Polytron homogenizer (Kinematica, Model PT 3000, Switzerland). The homogenate was filtered with pressure through muslin and the filtrate centrifuged for 10 min at 1000 g to remove connective tissue, unbroken cells and cell debris.
# This membrane preparation has been described in Biochem. Biophys. Acta. […] The binding assay of [^3 H]-DHA was carried out as described in Biochem. Biophys. Res. Commun. […] [^3 ]-DHA and ventricular membranes (200-300 μg) were incubated for 60 min at 25° C. with and without the addition of 1 μM alprenolol, in 75 mM Tris-HCI buffer comprising MgCl2 25 mM, to make a final volume of 250 μl. In competitive binding experiments, the competing agent was added directly to the incubation mixture. The incubation was terminated by addition of 1 ml of ice-cold assay buffer followed by immediate filtration through Whatman GF/C glass fiber filters supported on a 12-port filter manifold (Millipore). The filters were immediately washed three times with 5 ml of ice-cold assay buffer and dried in an oven at 60° C. for 2 hr prior to adding 5 ml of Triton-toluene based scintillation fluid.
# In each experiment, non-specifically bound [^3 H]-DHA was determined by incubating membrane protein and [^3 H]-DHA with 1 μM alprenolol. Specific binding was thus obtained by deducing this value from the total binding of [^3 H]-DHA for each sample.
# All incubations were performed as described in the method section. Data shown are the means of three independent duplicate determinations.
# [2] = molecular target: T2, β1-adrenoceptor (left atrium) (Cavia porcellus, UniProt H0W3H1); test: β-adrenoceptor antagonism in isolated electrically driven left atria (isoproterenol inotropic response); set-up: species or system guinea-pig
# T2 construct: Spontaneously-beating right atria were removed from the hearts and mounted in a 10 ml organ bath; from tissue; host or cells: isolated guinea-pig (Hartley) right and left atria
# T2 sequence (H0W3H1 1-470): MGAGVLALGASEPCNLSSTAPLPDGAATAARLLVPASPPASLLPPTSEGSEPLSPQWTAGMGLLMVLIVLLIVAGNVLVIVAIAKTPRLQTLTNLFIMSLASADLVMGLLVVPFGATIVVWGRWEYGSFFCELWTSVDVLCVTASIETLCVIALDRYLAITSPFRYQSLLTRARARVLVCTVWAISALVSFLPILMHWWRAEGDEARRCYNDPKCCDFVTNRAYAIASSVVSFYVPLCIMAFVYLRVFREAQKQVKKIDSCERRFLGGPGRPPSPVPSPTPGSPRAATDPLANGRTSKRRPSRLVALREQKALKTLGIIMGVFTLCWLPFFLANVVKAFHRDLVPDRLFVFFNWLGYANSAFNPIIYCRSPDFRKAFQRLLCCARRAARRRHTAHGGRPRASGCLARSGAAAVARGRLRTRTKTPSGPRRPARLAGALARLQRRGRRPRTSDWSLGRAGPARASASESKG
# Description: In the isolated left atria, quiescent left atria were dissected free of connective tissue and mounted in organ chambers under a resting tension of 0.5 g. […] Cumulative concentration-response curves to the positive inotropic effects of (-) isoproterenol were obtained in the absence and presence of various concentrations of a test compound. An incubation time of 30 min was allowed for the test compound. Data were calculated as a percentage of the increase in force induced by (-) isoproterenol.
# The pA2 values and slope values were calculated from individual Schild plots by regression analysis. The β1 /β2 -selectivity ratio was obtained from the antilogarithm of the difference between the mean pA2 values obtained from right atrium and trachea.
# Mean cumulative concentration-response curves are shown for the positive chronotropic responses to (-) isoproterenol in spontaneously-beating guinea-pig right atria, positive inotropic responses to (-) isoproterenol in electrically driven guinea-pig left atria, and relaxant effects to (-) isoproterenol in guinea-pig spontaneous tone tracheal strips in the absence (.smallcircle.) or presence of 0.01 (.circle-solid.), 0.1, 1 (.tangle-soliddn.) or 10 (.diamond.) μM of vasomolol.
# [3] = system: phenylephrine-induced pressor response; test: Inhibition of phenylephrine-induced pressor response during intravenous infusion; assay type: in vivo, reserpinized rats; conditions: infusion 300 μg/kg/min; phenylephrine 10 μg/kg i.v.; data not shown
# Description: The method reported in Gen. Pharmacol. 24, 1425, 1993 (by inventor group),
# phenylephrine (10 μg/klg, i.v.)
# [4] = Blood pressure and heart rate responses to intravenous injection in anesthetized rats; assay type: in vivo, pentobarbital-anesthetized normotensive Wistar rats
# Description: Measurement of blood pressure and heart rate
# The method reported in Gen.
# vasomolol (0.5, 1.0, 3.0 mg/kg)
# [5] = system: isolated rat thoracic aorta; test: Inhibition of phenylephrine and high K+ induced contractions of isolated rat aorta (vasodilatation effect)
# Description: Male rats weighing 200-250 g were sacrificed by a blow on the head and the thoracic aorta was removed and cleaned of all loosely adhering tissue. The thoracic aorta was cut from an area close to the aortic arch, immediately placed in a physiological solution, and trimmed to 2-4 mm in length as described in Gen. Pharmacol. 24, 1425, 1993 (by inventor group) The rings were then mounted with a tension of 1.0 g between parallel hooks in a 10 ml organ bath containing a physiological solution(mM):NaCl 112; KCl5.0; NaHCO3 25; KH2 PO4 1.0; CaCl2 1.25; MgSO4 1.2; and glucose 11.5]. The bath was maintained at 37° C. and aerated with a mixture of 95% O2 and 5% CO2. The tension of the aortic rings were recorded isometrically by means of a force displacement transducer (UGO, Model 7004, Italy) connected to an amplifier (COULBOURN, Model S72-25, U.S.A.). Before the start of the experiments, all preparations were allowed to equilibrate for 1.0 hr in the physiologic solution.
# Effects of vasomolol on (A) phenylephrine(10^-5 M) and (B) high K^+ (75 mM) induced contraction in rat thoracic aorta.
# [6] = system: right atria and left atrial strips; test: Intrinsic sympathomimetic activity in isolated right atria and left atrial strips; set-up: species or system reserpinized guinea-pigs; conditions: for intrinsic sympathomimetic activity: effect on heart rate and contractility: cumulative concentrations, in words
# Description: Animals were pretreated with reserpine (10 mg/kg, i.p.) 24 hr prior to the experiment described in Naunyn-Schmiedeberg's Arch. […] All preparations including isolated right atria and left atria strips were studied.
# All measurements are expressed as mean percentages of the control frequency or force in the same preparation.
# [7] = 0.5 mg/kg i.v., mean ± SEM (n = 8)
# [8] = 1.0 mg/kg i.v., mean ± SEM (n = 8)
# [9] = 3.0 mg/kg i.v., mean ± SEM (n = 8)
# T1 sequence (Q28998 whole entry): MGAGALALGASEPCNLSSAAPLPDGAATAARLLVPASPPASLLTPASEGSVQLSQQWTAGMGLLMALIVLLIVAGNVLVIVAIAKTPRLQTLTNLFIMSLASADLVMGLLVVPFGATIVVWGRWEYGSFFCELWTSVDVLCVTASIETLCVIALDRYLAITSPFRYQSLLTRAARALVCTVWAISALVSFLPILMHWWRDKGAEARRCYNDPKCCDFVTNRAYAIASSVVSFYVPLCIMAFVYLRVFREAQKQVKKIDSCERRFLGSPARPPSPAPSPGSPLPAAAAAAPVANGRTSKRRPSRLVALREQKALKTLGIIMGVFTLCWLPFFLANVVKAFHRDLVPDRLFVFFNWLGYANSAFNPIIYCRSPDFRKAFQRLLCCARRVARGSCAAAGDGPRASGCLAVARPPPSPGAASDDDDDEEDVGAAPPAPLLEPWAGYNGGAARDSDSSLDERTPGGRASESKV
structure (smiles),measurement,setting,value
CCOC(=O)c1ccc(OCC(O)CNC(C)(C)C)c(OC)c1 (stereo not drawn) [Vasomolol],order of potency inhibiting [3H]-DHA binding,[1]; in words,(-) propranolol>>vasomolol=esmolol
same,IC50,[1]; mean±S.E.M.,4.7 ± 1.5 µM
same,antagonism of isoproterenol-induced positive inotropic responses,[2]; electrically driven left atrial strips,produced dose-dependent rightward shifts of the cumulative concentration-response curves to isoproterenol
same,relative β-adrenoceptor blocking potency,"[2]; guinea-pig atria, in words","more potent than atenolol, slightly more potent than metoprolol, and was less potent than propranolol"
same,"pA2 value, β1, left atrium","[2]; mean ± SEM, six to eight experiments, 30 min",7.44 ± 0.03
same,"Schild slope, left atrium",[2]; regression of Schild plot,0.89 ± 0.02
same,inhibition of phenylephrine-induced pressor response,[3],could not significantly inhibit
same,BP change,[4]; [7],-4.5 ± 1.4 mm Hg
same,HR change,[4]; [7],-20.0 ± 2.3 bpm
same,bradycardia duration,[4]; [7],3.5 ± 0.7 min
same,BP change,[4]; [8],-6.5 ± 1.9 mm Hg
same,HR change,[4]; [8],-34.5 ± 2.8 bpm
same,bradycardia duration,[4]; [8],7.2 ± 0.8 min
same,BP change,[4]; [9],-10.8 ± 1.2 mm Hg
same,HR change,[4]; [9],-50.0 ± 3.4 bpm
same,bradycardia duration,[4]; [9],8.0 ± 1.2 min
same,bradycardia duration,[4]; i.v. injection,less than 10 min
same,blood pressure and heart rate effect,"[4]; i.v. injection 0.5, 1.0, 3.0 mg/kg, in words",produced a hypotensive action and a decrease in heart rate
same,inhibition of high K+ induced contraction,"[5]; K+ 75 mM, vasomolol printed 10^6 -10^5 M",significantly inhibited
same,"relaxation sensitivity, high K+ versus phenylephrine",[5]; in words,more sensitive in high K^+ than in phenylephrine-contracted aorta preparations
same,inhibition of phenylephrine-induced contraction,"[5]; phenylephrine printed 10^5 M, vasomolol printed 10^6 -10^5 M",significantly inhibited
same,intrinsic sympathomimetic activity: effect on heart rate and contractility,[6],did not induce an increase in the heart rate or contractility
same,intrinsic sympathomimetic activity: effect on heart rate and contractility,[6]; listed as vasomolol,Lack of intrinsic sympathomimetic activity
same,concentration causing negative inotropic and chronotropic effects,[6]; right atria rate and left atria tension,≥ 10^-5 M
